Assay results taken from ChEMBL document CHEMBL1201862, “PubChem BioAssay data set” (2004).
Active and inactive are the calls of the source.

Assays:
[1] = target: Delta-type opioid receptor (Homo sapiens, UniProt P41143); experiment: Late-stage results from the probe development effort to identify antagonists of OPRK1: fluorescence-based cell-based dose response OPRD1 counterscreen, Set 2.; type: functional
Mu-type opioid receptor = Mu-type opioid receptor (Homo sapiens, UniProt P35372); experiment: Late-stage results from the probe development effort to identify antagonists of OPRK1: luminescence-based cell-based dose response OPRM1 counterscreen, Set 2.; type: functional
[2] = target: Kappa-type opioid receptor (Homo sapiens, UniProt P41145); experiment: Late-stage fluorescence-based cell-based dose response assay for antagonists of kappa opioid receptor 1 (OPRK1).; type: functional
[3] = target: Sphingosine 1-phosphate receptor 1 (Homo sapiens, UniProt P21453); experiment: Late-stage counterscreen for antagonists of kappa opioid receptor 1 (OPRK1): fluorescence-based cell-based dose response assay to identify antagonists of Sphingosine 1-Phosphate Receptor 1 (S1P1).; type: functional
[4] = inhibitors of non-replicating M. tuberculosis, dose response, luciferase, dry powder (AID 651619); type: functional; details: Mycobacterium tuberculosis
[5] = growth inhibition of replicating M. tuberculosis, dose response, counter-screen, dry powder, IC90 (AID 651617); type: functional; details: Mycobacterium tuberculosis
[6] = HEK293T cell cytotoxicity, dose response, cytotoxicity control, CellTiter-Glo luminescence, dry powder, set 6 (AID 651949); type: functional, cell-based; details: HEK293
[7] = inhibitors of non-replicating M. tuberculosis, dose response, luciferase, dry powder (AID 651620); type: functional; details: Mycobacterium tuberculosis
[8] = HeLa cell cytotoxicity, dose response, cytotoxicity control for MgcRacGAP inhibitor project (AID 624300); type: functional
[9] = target: Glucose-6-phosphate 1-dehydrogenase (Homo sapiens, UniProt P11413); experiment: human G6PD enzyme inhibitors, dose response, selectivity assay for P. falciparum G6PD inhibitor project, biochemical, fluorescence (AID 504792); type: functional
[10] = inhibitors of fibronectin matrix deposition, dose response, AH1F cells, Alexa488-FN fluorescence, cherry-picks (AID 1035475); type: functional, cell-based
A-375 = experiment: MITF: Counter assay: A375 proliferation Measured in Cell-Based System Using Plate Reader - 2084-03_Inhibitor_Dose_DryPowder_Activity. [Related pubchem assays (depositor defined):AID488944]; type: functional; details: Homo sapiens
[11] = target: SWI/SNF-related matrix-associated actin-dependent regulator of chromatin subfamily A member 2 (Homo sapiens, UniProt P51531); experiment: Luminescence-based cell-based high throughput dose response assay to identify activators of the function of SWI/SNF related, matrix associated, actin dependent regulator of chromatin, subfamily a, member 2 (SMARCA2, BRM).; type: functional
cells [12] = details: A549
[13] = target: T1, Microphthalmia-associated transcription factor (Homo sapiens, UniProt O75030); experiment: TRPM1 promoter luciferase signal decrease, dose response, MITF inhibitor project, cell-based, SK-MEL-5, cherry-picked, set 3 (AID 493073); type: functional
T1 sequence (O75030 whole entry): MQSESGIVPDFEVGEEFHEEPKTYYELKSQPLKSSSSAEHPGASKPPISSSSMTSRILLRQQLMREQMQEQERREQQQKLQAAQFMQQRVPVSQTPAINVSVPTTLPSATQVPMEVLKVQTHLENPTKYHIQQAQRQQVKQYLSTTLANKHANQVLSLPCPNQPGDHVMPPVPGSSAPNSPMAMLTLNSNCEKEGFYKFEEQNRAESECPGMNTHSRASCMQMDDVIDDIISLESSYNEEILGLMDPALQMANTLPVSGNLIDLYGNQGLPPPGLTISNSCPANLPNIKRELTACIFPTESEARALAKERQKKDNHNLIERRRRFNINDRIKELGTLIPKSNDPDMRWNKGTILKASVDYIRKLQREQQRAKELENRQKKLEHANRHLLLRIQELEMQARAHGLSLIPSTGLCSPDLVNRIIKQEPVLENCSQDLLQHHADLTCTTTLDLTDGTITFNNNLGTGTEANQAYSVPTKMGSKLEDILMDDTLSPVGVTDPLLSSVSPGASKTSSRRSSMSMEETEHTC

cells [14] = details: HEK293
[15] = Counterscreen for activators of the function of SWI/SNF related, matrix associated, actin dependent regulator of chromatin, subfamily a, member 2 (SMARCA2, BRM): Luminescence-based cell-based high throughput dose response assay to identify non-selective compounds using the VP16 reporter assay.; type: functional
[16] = HepG2 cell cytotoxicity, dose response, cytotoxicity control, ATP luminescence, cherry-pick, set 6 (AID 1053125); type: functional, cell-based
[17] = target: T2, Oxysterols receptor LXR-beta (Homo sapiens, UniProt P55055); experiment: LXR agonists, Gal4 luciferase reporter, dose response, counter-screen for ssDAF-12 agonist project, cell-based, luminescence, HEK293, S. stercoralis campaign (AID 720737); type: functional; details: read-out: IC50 (the source's name)
T2 sequence (P55055 whole entry): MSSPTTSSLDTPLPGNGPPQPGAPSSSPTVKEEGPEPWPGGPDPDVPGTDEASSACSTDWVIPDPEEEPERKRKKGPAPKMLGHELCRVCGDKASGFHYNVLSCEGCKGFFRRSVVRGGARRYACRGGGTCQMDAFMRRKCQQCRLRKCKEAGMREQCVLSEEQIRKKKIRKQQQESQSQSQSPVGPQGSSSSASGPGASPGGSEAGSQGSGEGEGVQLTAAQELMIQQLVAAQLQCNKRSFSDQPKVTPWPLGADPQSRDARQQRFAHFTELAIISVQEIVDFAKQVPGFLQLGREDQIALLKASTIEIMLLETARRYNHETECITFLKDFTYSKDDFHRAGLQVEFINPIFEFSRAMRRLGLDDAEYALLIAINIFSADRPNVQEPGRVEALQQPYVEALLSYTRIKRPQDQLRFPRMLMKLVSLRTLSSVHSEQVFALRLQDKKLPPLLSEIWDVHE

[18] = Luminescence Cell-Based Dose Retest to Confirm Inhibitors of Cancer Stem Cells. [Related pubchem assays (depositor defined):AID2717, AID2721]; type: functional; details: Homo sapiens
Protein skinhead-1 = target: T3, Protein skinhead-1 (Caenorhabditis elegans, UniProt P34707); type: functional
T3 sequence (P34707 whole entry): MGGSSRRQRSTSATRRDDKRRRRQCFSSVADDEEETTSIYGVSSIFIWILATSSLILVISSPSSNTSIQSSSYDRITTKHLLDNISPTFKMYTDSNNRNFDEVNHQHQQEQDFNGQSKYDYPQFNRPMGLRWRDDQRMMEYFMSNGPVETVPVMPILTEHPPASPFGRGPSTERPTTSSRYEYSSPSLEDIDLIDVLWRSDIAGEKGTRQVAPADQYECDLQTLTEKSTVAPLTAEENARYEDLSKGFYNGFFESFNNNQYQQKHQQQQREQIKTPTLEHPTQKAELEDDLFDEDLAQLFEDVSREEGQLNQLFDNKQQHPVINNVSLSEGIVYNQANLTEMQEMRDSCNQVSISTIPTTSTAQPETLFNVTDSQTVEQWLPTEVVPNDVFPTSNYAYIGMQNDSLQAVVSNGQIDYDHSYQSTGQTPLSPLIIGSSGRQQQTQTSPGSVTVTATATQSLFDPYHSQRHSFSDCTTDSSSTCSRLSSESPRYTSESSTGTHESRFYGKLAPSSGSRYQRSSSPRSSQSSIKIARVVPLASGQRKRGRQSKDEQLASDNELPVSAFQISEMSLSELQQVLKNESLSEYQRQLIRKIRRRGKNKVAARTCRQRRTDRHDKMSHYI

[19] = HepG2 cell cytotoxicity, dose response, cytotoxicity control, ATP luminescence, cherry-pick, activator set 2 (AID 1053143); type: functional, cell-based
[20] = target: T2, Oxysterols receptor LXR-beta; type: functional, cell-based
[21] = Luminescence-based cell-based high throughput dose response assay to identify activators of the DAF-12 from the parasite S. stercoralis (ssDAF-12).; type: functional

Chain of SWI/SNF-related matrix-associated actin-dependent regulator of chromatin subfamily A member 2 (P51531 whole entry): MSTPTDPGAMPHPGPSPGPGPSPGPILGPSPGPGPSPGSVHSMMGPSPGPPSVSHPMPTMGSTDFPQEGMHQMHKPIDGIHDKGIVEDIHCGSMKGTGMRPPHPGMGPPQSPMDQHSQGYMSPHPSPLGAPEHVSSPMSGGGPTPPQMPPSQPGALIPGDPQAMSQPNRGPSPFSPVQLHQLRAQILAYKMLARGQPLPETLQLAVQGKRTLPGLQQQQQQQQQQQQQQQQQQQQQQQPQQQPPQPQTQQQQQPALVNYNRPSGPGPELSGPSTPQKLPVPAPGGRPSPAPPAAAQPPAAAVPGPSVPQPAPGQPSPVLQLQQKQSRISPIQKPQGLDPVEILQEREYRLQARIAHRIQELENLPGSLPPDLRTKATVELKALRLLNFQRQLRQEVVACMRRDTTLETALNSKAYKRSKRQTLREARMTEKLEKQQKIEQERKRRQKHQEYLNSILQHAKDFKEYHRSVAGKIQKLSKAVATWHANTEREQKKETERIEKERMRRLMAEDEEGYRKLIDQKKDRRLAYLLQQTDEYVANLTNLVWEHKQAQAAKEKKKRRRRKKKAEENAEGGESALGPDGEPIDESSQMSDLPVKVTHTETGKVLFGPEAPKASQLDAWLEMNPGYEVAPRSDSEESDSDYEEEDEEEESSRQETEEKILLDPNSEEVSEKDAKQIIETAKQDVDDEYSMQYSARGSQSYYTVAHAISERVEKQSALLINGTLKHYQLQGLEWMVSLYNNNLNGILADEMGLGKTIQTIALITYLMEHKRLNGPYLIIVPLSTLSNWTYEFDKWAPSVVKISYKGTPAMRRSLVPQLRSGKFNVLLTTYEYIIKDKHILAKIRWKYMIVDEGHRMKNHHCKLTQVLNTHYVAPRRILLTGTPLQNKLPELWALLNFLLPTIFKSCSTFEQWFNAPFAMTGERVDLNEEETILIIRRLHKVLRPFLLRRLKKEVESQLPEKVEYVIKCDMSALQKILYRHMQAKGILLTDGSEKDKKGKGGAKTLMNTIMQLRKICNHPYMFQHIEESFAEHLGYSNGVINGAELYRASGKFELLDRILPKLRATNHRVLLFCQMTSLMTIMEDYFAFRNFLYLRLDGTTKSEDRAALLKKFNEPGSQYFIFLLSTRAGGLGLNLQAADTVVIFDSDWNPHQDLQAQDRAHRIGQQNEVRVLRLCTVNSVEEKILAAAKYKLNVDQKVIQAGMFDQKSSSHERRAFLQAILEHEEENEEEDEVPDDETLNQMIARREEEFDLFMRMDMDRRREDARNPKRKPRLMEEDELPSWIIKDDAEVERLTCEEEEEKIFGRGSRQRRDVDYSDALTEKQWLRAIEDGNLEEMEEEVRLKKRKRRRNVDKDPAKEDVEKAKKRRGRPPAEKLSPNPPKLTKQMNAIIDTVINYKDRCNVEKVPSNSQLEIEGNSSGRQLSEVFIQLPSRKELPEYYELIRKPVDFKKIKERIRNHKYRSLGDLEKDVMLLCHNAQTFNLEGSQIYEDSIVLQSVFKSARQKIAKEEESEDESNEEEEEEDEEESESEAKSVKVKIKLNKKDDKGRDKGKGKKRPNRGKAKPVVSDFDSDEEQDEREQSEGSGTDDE
Chain of Kappa-type opioid receptor (P41145 whole entry): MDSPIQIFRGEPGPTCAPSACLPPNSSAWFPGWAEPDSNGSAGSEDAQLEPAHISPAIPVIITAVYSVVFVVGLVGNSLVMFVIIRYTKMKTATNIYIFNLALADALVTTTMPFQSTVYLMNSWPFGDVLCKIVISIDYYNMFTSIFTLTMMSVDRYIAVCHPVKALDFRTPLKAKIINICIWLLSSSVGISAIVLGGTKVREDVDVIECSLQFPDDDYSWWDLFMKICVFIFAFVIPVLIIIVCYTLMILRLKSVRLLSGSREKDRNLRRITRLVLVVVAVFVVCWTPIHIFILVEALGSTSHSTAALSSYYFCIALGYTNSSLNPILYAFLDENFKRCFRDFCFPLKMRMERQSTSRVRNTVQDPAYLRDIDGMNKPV
Chain of Glucose-6-phosphate 1-dehydrogenase (P11413 whole entry): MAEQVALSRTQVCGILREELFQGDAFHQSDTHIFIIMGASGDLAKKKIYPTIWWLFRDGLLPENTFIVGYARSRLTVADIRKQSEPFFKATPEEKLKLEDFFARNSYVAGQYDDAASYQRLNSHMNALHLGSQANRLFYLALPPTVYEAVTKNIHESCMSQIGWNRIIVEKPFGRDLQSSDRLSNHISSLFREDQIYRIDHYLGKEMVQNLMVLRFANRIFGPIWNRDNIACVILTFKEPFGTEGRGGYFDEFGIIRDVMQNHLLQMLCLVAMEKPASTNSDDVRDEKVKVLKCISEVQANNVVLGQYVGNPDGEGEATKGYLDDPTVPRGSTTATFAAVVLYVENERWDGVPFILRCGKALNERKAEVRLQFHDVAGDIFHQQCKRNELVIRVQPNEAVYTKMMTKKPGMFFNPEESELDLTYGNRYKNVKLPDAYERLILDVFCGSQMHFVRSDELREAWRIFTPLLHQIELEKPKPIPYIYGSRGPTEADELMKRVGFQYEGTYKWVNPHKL
Chain of Delta-type opioid receptor (P41143 whole entry): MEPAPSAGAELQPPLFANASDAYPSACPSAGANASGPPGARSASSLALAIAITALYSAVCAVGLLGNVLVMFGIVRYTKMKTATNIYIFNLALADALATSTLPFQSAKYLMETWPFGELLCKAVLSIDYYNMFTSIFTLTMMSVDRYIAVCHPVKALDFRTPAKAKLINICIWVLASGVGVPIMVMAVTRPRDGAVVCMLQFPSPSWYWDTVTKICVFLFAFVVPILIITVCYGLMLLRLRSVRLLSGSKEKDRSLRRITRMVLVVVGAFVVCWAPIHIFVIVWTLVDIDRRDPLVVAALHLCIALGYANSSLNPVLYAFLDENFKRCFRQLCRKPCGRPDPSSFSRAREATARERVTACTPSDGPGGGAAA
Chain of Mu-type opioid receptor (P35372 whole entry): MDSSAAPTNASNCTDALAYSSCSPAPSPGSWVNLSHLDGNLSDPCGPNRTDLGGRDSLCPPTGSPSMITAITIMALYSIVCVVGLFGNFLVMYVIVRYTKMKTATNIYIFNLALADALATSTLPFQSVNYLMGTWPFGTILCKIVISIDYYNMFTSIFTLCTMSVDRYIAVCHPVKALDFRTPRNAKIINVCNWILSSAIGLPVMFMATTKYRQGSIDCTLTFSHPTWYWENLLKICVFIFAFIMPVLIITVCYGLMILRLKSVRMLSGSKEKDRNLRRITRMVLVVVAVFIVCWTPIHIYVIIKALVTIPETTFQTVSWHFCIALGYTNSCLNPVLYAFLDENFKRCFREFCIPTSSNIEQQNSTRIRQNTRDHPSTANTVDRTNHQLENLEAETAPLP
Chain of Sphingosine 1-phosphate receptor 1 (P21453 whole entry): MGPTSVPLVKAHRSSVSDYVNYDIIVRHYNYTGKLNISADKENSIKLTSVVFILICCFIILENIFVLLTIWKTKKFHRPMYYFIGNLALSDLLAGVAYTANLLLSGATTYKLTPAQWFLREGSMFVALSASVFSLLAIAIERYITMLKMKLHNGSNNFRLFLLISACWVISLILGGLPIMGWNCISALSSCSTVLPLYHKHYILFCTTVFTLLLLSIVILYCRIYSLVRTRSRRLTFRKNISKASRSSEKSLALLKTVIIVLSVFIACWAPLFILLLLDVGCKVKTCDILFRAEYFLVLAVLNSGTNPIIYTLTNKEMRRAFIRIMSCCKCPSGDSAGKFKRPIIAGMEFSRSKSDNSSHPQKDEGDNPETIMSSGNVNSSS

CN(C)c1cccc2c1c(NC(=O)Nc1ccc(OCc3ccccc3)cc1)nn2C
IC50 [1]: 4.38 µM (active)
IC50 (Mu-type opioid receptor): 42.9 µM (inactive)
IC50 [2]: 1.82 µM (active)
IC50 [3]: 34.9 µM (inactive)

Fc1ccc(Cn2cc(CSc3nnc(C4CCC4)o3)nn2)cc1
IC90 [4]: 4 µM (active)
IC90 [5]: 250 µM (active)
AC50 [6]: 47.1 µM (active)
IC90 [7]: 4 µM (active)

O=C(Nc1nc(-c2ccncc2)cs1)C1COc2ccccc2O1 (centres undefined)
CC50 [8]: 100 µM (active)
IC50 [9]: > 80 µM (inactive)
AC50 [10]: 0.512 µM (active)

c1ccc2cc3c(NCCN4CCOCC4)ccnc3cc2c1
AC50 (A-375): 21.2 µM (active)
EC50 [11]: 11.1 µM (inactive)
AC50 (cells [12]): 6.11 µM (active)
AC50 [13]: 2.91 µM (active)
AC50 (cells [14]): 9.44 µM (active)
EC50 [15]: > 91.2 µM (inactive)
AC50 [16]: 12 µM (active)

Oc1cccc(/C=C/c2ccc3cccc(O)c3n2)c1
EC50 [17]: > 67.6 µM (inactive)
AC50 [18]: 3.91 µM (active)
IC50 (Protein skinhead-1): > 100 µM (inactive)
AC50 [19]: 26 µM (active)
EC50 [20]: > 67.6 µM (inactive)
IC50 [21]: > 67.6 µM (inactive)
